From patent US20080200404A1, “Novel Antimalarial 9A-Carbamoyl-Aminoalkyl and 9A-Thiocarbamoyl-Aminoalkyl Azalides” (priority 2005, published 2008)
Values after ≈ are worked out from the molar mass of the structure shown. Like-named read-outs stand apart in the source and are kept apart here.

Columns and labels:
Assay type in all cases: cell-based
[1] = test system: Plasmodium falciparum TM91C235; assay: In vitro antimalarial [3H]-hypoxanthine incorporation assay, TM91C235; details: P. falciparum TM91C235 (multiple drug resistant isolate), 72 hours exposure; for IC50: Plasmodium falciparum
From the text: (§1) The in vitro screens for intrinsic antimalarial activity were based on modifications of the procedures described by Desjardins R E, Canfield C J, Haynes J D, Chulay J D. (Quantitative assessment of antimalarial activity in vitro by a semiautomated microdilution technique. Antimicrob Agents Chemother. 1979 December; 16(6):710-8.), Chulay J D, Haynes J D, Diggs C L. (Plasmodium falciparum: Assessment of in vitro growth by [3H]hypoxanthine incorporation. Exp. Parasitol. 1983 55:138-146.), and Milhous W K, Weatherly N F, Bowdre J H, Desjardins R E. (In vitro activities of and mechanisms of resistance to antifol antimalarial drugs. Antimicrob Agents Chemother. 1985 April; 27(4):525-30.). The system was limited to the assessment of the intrinsic activity against the erythrocytic asexual life cycle (blood schizontocides). Two Plasmodium falciparum clones from CDC/Indochina III (W-2) and CDC/Sierra Leone I (D-6) (Oduola A M, Weatherly N F, Bowdre J H, Desjardins R E. Plasmodium falciparum: cloning by single-erythrocyte micromanipulation and heterogeneity in vitro. Exp Parasitol. 1988 66(1):86-95.) were used for all assays. TM91C235, a multiple drug resistant isolate from Thailand, was used for the prescreening assay. W-2 is resistant to chloroquine, quinine, and pyrimethamine and susceptible to mefloquine. D-6 tends to be more resistant to mefloquine and susceptible to chloroquine, quinine, and pyrimethamine. All documents cited in this paragraph are incorporated by reference in their entirety.
(§2) All parasites were maintained in continuous long term cultures in RPMI-1640 medium supplemented with 6% washed human A positive (A+)(erythrocytes, 25 mM Hepes, […], and 10% heat inactivated A+human plasma or ALBUMAX® (lipid-rich bovine serum albumin; Invitrogen, Carlsbad, Calif.). All cultures and assays were conducted at 37° C. under an atmosphere of 5% CO2 and 5% O2, with a balance of N2.
The prescreening assay uses TM91C235 diluted at a 0.4% parasitemia in a 1% hematocrit in folic acid free and p-aminobenzoic acid free media RPMI-1640 and ALBUMAX®. One mg of the compound is typically dissolved in 100 μl of dimethyl sulfoxide (DMSO). The compound is further diluted in culture medium (FF) with ALBUMAX® for the first initial starting concentration. The rest of the stock drug solution was kept at −70° C. The isolate was preexposed, in duplicate, at three concentrations (25,000 ng/ml, 2,500 ng/ml, and 25 ng/ml) of the test compound for 48 hr in a 96-well microtiter plate (MTP) using the BIOMEK® 2000 automated laboratory workstation. Each MTP contains chloroquine as control to assess the relative activity of the compound and to monitor the response of TM91C235.
(§3) After the preincubation, [^3H]-hypoxanthine was added to each well of the MTP. (The assay relies on the incorporation of radiolabeled hypoxanthine by the parasites, which indicates reproduction, and inhibition of isotope incorporation was attributed to activity of known or candidate antimalarial drugs). After 72 hr of total incubation time, the MTP were frozen to lyse the erythrocytes and parasites. The parasite DNA was recovered by harvesting the lysate onto glass-fiber filter plates using a Packard FilterMate™ Cell Harvester. The radioactivity was counted on a Packard TopCount™ microplate scintillation counter. The results were recorded as counts per minutes (CPM) per well at each drug concentration divided by the arithmetic mean of the CPM from the three untreated infection parasite control wells.
The serial dilution assay was conducted using the same assay conditions and stock solution of the compound used for the preliminary screen, described above. Both the D-6 and the W-2 clones were used. The compounds were diluted two-fold over 11 different concentration ranges with a starting concentration that was based on the preliminary screen. […]

[2] = test system: Plasmodium falciparum clone CDC/Indochina III (W-2); assay: In vitro antimalarial [3H]-hypoxanthine incorporation serial dilution assay, W2; details: P. falciparum W2, 72 hours exposure; for IC50: Plasmodium falciparum
From the text: as §1, §2, §3
(§4) The serial dilution assay was conducted using the same assay conditions and stock solution of the compound used for the preliminary screen, described above. Both the D-6 and the W-2 clones were used. The compounds were diluted two-fold over 11 different concentration ranges with a starting concentration that was based on the preliminary screen. For each drug, the concentration response profile was determined and 50% inhibitory concentrations (IC50) were determined by using a non-linear, logistic dose response analysis program. […] For each assay, the IC50 for each clone was determined against the known antimalarials chloroquine and mefloquine. These control values established the compound's relative parasite susceptibility profile compared to known antimalarials. […]
(§5) The in vitro potency of the compounds has been compared with that of azithromycin to better gauge compounds suitable for further testing. As described above, parasites were exposed for 72 hours. Data from the in vitro potency tests of azithromycin against the three parasite strains have been averaged, and these numbers have been used for identification of “active” macrolide compounds.

[3] = test system: Plasmodium falciparum clone CDC/Sierra Leone I (D-6); assay: In vitro antimalarial [3H]-hypoxanthine incorporation serial dilution assay, D6; details: P. falciparum D6, 72 hours exposure; for IC50: Plasmodium falciparum, D6, 72 h
From the text: as §1, §2, §3, §4, §5

[4] = compared with azithromycin, read-out: IC50 D6 (class symbol)

Row | SMILES | IC50 TM91C235 [1] | IC50 W2 [2] | IC50 D6 [3] | IC50 [1] | IC50 [3, 4] | IC50 [2] | IC50 ([3]; read-out: IC50 D6)
1 | CC[C@H]1OC(=O)[C@H](C)[C@@H](O[C@H]2C[C@@](C)(OC)[C@@H](O)[C@H](C)O2)[C@H](C)[C@@H](O[C@@H]2O[C@H](C)C[C@H](N(C)C)[C@H]2O)[C@](C)(O)C[C@@H](C)CN(CCNC(=O)NC(C)C)[C@H](C)[C@@H](O)[C@]1(C)O [Example 1, 9-Deoxo-9-dihydro-9a-(N′-isopropylcarbamoyl-β-aminoethyl)-9a-aza-9a-homoerythromycin A] | 0.6191 µg/mL (≈ 0.717 µM) | 1.777 µg/mL (≈ 2.06 µM) | – | – | – | – | –
2 | CCC1OC(=O)C(C)C(OC2CC(C)(OC)C(O)C(C)O2)C(C)C(OC2OC(C)CC(N(C)C)C2O)C(C)(O)CC(C)CN(CCNC(=O)Nc2cccc3ccccc23)C(C)C(O)C1(C)O (stereo not drawn) [Example 2, 9-Deoxo-9-dihydro-9a-[N′-(1-naphtyl)carbamoyl-β-aminoethyl]-9a-aza-9a-homoerythromycin A] | 0.0399 µg/mL (≈ 0.0421 µM) | 0.0744 µg/mL (≈ 0.0785 µM) | 0.1344 µg/mL (≈ 0.142 µM) | – | – | – | –
3 | CCC1OC(=O)C(C)C(OC2CC(C)(OC)C(O)C(C)O2)C(C)C(OC2OC(C)CC(N(C)C)C2O)C(C)(O)CC(C)CN(CCNC(=O)NCc2ccccc2)C(C)C(O)C1(C)O (stereo not drawn) [Example 3, 9-Deoxo-9-dihydro-9a-(N′-benzylcarbamoyl-β-aminoethyl)-9a-aza-9a-homoerythromycin A] | 0.1547 µg/mL (≈ 0.17 µM) | 0.2617 µg/mL (≈ 0.287 µM) | 0.292 µg/mL (≈ 0.32 µM) | – | – | – | –
4 | CCC1OC(=O)C(C)C(OC2CC(C)(OC)C(O)C(C)O2)C(C)C(OC2OC(C)CC(N(C)C)C2O)C(C)(O)CC(C)CN(CCNC(=O)Nc2ccc3ccccc3c2)C(C)C(O)C1(C)O (stereo not drawn) [Example 12, 9-Deoxo-9-dihydro-9a-[N′-(2-naphtyl)carbamoyl-β-aminoethyl]-9a-aza-9a-homoerythromycin A] | 0.0289 µg/mL (≈ 0.0305 µM) | 0.0432 µg/mL (≈ 0.0456 µM) | 0.0713 µg/mL (≈ 0.0753 µM) | – | – | – | –
5 | CC[C@H]1OC(=O)[C@H](C)[C@@H](O[C@H]2C[C@@](C)(OC)[C@@H](O)[C@H](C)O2)[C@H](C)[C@@H](O[C@@H]2O[C@H](C)C[C@H](N(C)C)[C@H]2O)[C@](C)(O)C[C@@H](C)CN(CCCNC(=O)NC(C)(C)C)[C@H](C)[C@@H](O)[C@]1(C)O [Example 53] | – | – | – | 0.713 µg/mL (≈ 0.8 µM) | > 0.797 µg/mL | 0.366 µg/mL (≈ 0.41 µM) | –
6 | CCC(C)NC(=O)NCCCN1C[C@H](C)C[C@@](C)(O)[C@H](O[C@@H]2O[C@H](C)C[C@H](N(C)C)[C@H]2O)[C@@H](C)[C@H](O[C@H]2C[C@@](C)(OC)[C@@H](O)[C@H](C)O2)[C@@H](C)C(=O)O[C@H](CC)[C@@](C)(O)[C@H](O)[C@H]1C (some centres unmarked) [Example 55] | – | – | – | 1.05 µg/mL (≈ 1.18 µM) | > 0.797 µg/mL | 0.435 µg/mL (≈ 0.489 µM) | –
7 | CC[C@H]1OC(=O)[C@H](C)[C@@H](O[C@H]2C[C@@](C)(OC)[C@@H](O)[C@H](C)O2)[C@H](C)[C@@H](O[C@@H]2O[C@H](C)C[C@H](N(C)C)[C@H]2O)[C@](C)(O)C[C@@H](C)CN(CCCNC(=O)NC2CCCC2)[C@H](C)[C@@H](O)[C@]1(C)O [Example 56] | – | – | – | 0.556 µg/mL (≈ 0.616 µM) | > 0.797 µg/mL | 0.251 µg/mL (≈ 0.277 µM) | –
8 | CC[C@H]1OC(=O)[C@H](C)[C@@H](O[C@H]2C[C@@](C)(OC)[C@@H](O)[C@H](C)O2)[C@H](C)[C@@H](O[C@@H]2O[C@H](C)C[C@H](N(C)C)[C@H]2O)[C@](C)(O)C[C@@H](C)CN(CCCNC(=O)NCc2ccco2)[C@H](C)[C@@H](O)[C@]1(C)O [Example 57] | – | – | – | 0.454 µg/mL (≈ 0.496 µM) | > 0.797 µg/mL | 0.263 µg/mL (≈ 0.287 µM) | –
9 | CC[C@H]1OC(=O)[C@H](C)[C@@H](O[C@H]2C[C@@](C)(OC)[C@@H](O)[C@H](C)O2)[C@H](C)[C@@H](O[C@@H]2O[C@H](C)C[C@H](N(C)C)[C@H]2O)[C@](C)(O)C[C@@H](C)CN(CCCNC(=O)NC2CCCCC2)[C@H](C)[C@@H](O)[C@]1(C)O [Example 58] | – | – | – | 0.377 µg/mL (≈ 0.411 µM) | > 0.797 µg/mL | 0.169 µg/mL (≈ 0.185 µM) | –
10 | CC[C@H]1OC(=O)[C@H](C)[C@@H](O[C@H]2C[C@@](C)(OC)[C@@H](O)[C@H](C)O2)[C@H](C)[C@@H](O[C@@H]2O[C@H](C)C[C@H](N(C)C)[C@H]2O)[C@](C)(O)C[C@@H](C)CN(CCCNC(=O)Nc2ccc(C#N)cc2)[C@H](C)[C@@H](O)[C@]1(C)O [Example 59] | – | – | – | 0.193 µg/mL (≈ 0.206 µM) | – | 0.092 µg/mL (≈ 0.0983 µM) | 0.362 µg/mL (≈ 0.386 µM)
11 | CCc1ccc(NC(=O)NCCCN2C[C@H](C)C[C@@](C)(O)[C@H](O[C@@H]3O[C@H](C)C[C@H](N(C)C)[C@H]3O)[C@@H](C)[C@H](O[C@H]3C[C@@](C)(OC)[C@@H](O)[C@H](C)O3)[C@@H](C)C(=O)O[C@H](CC)[C@@](C)(O)[C@H](O)[C@H]2C)cc1 [Example 60] | – | – | – | 0.0933 µg/mL (≈ 0.0993 µM) | – | 0.0693 µg/mL (≈ 0.0738 µM) | 0.212 µg/mL (≈ 0.226 µM)
12 | CC[C@H]1OC(=O)[C@H](C)[C@@H](O[C@H]2C[C@@](C)(OC)[C@@H](O)[C@H](C)O2)[C@H](C)[C@@H](O[C@@H]2O[C@H](C)C[C@H](N(C)C)[C@H]2O)[C@](C)(O)C[C@@H](C)CN(CCCNC(=S)Nc2ccc(OC)cc2)[C@H](C)[C@@H](O)[C@]1(C)O.O=CO [Example 61] | – | – | – | 0.436 µg/mL | > 0.797 µg/mL | 0.253 µg/mL | –
13 | CCOC(=O)CCN(CCCN1C[C@H](C)C[C@@](C)(O)[C@H](O[C@@H]2O[C@H](C)C[C@H](N(C)C)[C@H]2O)[C@@H](C)[C@H](O[C@H]2C[C@@](C)(OC)[C@@H](O)[C@H](C)O2)[C@@H](C)C(=O)O[C@H](CC)[C@@](C)(O)[C@H](O)[C@H]1C)C(=O)NC(C)c1cccc2ccccc12 (some centres unmarked) [Example 163] | – | – | – | 0.0679 µg/mL (≈ 0.0623 µM) | – | – | 0.135 µg/mL (≈ 0.124 µM)
14 | CC[C@H]1OC(=O)[C@H](C)[C@@H](O[C@H]2C[C@@](C)(OC)[C@@H](O)[C@H](C)O2)[C@H](C)[C@@H](O[C@@H]2O[C@H](C)C[C@H](N(C)C)[C@H]2O)[C@](C)(O)C[C@@H](C)CN(CCCN(CCC(N)=O)C(=S)NCCCc2ccccc2)[C@H](C)[C@@H](O)[C@]1(C)O [Example 167, 9-Deoxo-9-dihydro-9a-{N′-(β-amidoethyl)-N′-[γ-(phenylpropyl)thiocarbamoyl]-γ-aminopropyl}-9a-aza-9a-homoerythromycin A] | – | – | – | 0.0572 µg/mL (≈ 0.055 µM) | – | – | 0.127 µg/mL (≈ 0.122 µM)
15 | CC[C@H]1OC(=O)[C@H](C)[C@@H](O)[C@H](C)[C@@H](O[C@@H]2O[C@H](C)C[C@H](N(C)C)[C@H]2O)[C@](C)(O)C[C@@H](C)CN(CCCN(CCC#N)C(=S)NCCc2ccccc2)[C@H](C)[C@@H](O)[C@]1(C)O [Example 170] | – | – | – | 0.128 µg/mL (≈ 0.151 µM) | – | – | 0.543 µg/mL (≈ 0.639 µM)
